Consider 4 compounds from PMC9228811, “Identification and Characterization of a Potential Antimicrobial Peptide Isolated from Soil Brevibacillus sp. WUL10 and Its Activity against MRSA Pathogens” (Tropical Medicine and Infectious Disease, 2022).

Test [1] relates to S. aureus TISTR 517. Kind of test: microbe, parasite or virus in culture. The class given is cell-based, Staphylococcus aureus. As to the method: (§1) Determination of MIC by broth microdilution was followed the Clinical and Laboratory Standard Institute (CLSI) guidelines. Cation-adjusted Mueller–Hinton broth (CAMHB) was used as a diluent. The purified substance (100 μL) was prepared by making the 2-fold dilution in the range of 0.125–32 μg/mL, and an aliquot (10 μL) of diluted suspension of the indicator strains (5 × 10^5 CFU/mL) was added into each well. Indicator strains without sample were a positive control, while CAMHB alone was the negative control. The 96-well plates were incubated at 37 °C for 24 h and measured the bacterial growth. […] MBC was determined by further spreading 10 µL of sample in each well on MH agar and incubated at 37 °C overnight.
(§2) The peptide sequence of the purified substance of WUL10 was analyzed by the Q-Exactive HF LC-MS/MS Orbitrap system. Briefly, the protonated peptides were first desalted on-line on a reverse-phase C18 PepMap 100 trapping column before being resolved onto a C18 PepMap 100 capillary column with a 70 min gradient of 0.1% HCO2H/H2O (mobile phase (MP): A) and 0.1% HCO2H/CH3CN (MP: B) at a flow rate of 300 nL/min. Peptides were analyzed by applying a data-dependent Top5 acquisition mode followed by a higher-energy collisional dissociation (HCD) at collision energy of 28. Full-scan (MS) mass spectra were acquired from m/z 400 to 2000 with an AGC target set at 3 × 10^6 ions and a resolution of 120,000. MS/MS scan was initiated when the ACG target reached 2 × 10^5 ions and a resolution of 30,000. The raw LC-MS file from LC-MS/MS was imported to PeakX studio 10.0 (Bioinformatics Solutions Inc., Waterloo, CA, USA). The peptide ion intensity with +2 to +5 charge states was automated de novo peptide sequenced with default parameters with minor modifications. Briefly, mass error tolerance for MS and MS/MS were 15 ppm and 0.1 Da, respectively. HCD-fragmentation series on b- and y-ion series were used to predict the peptide sequence. The confidence score was set at the high level of confidence to obtain a reliable set of high-precision peptides. The acceptable de novo peptide sequences were achieved by filtering average local confidence (ALC) to ≥50%. The acceptable peptide sequences with an average local confidence (ALC) threshold of ≥50% were submitted to the antimicrobial peptide scanner to analyze the probability of antimicrobial peptides. A number of resulting peptides (18 synthetic peptides) were synthesized by Kelowna International Scientific Inc. (Taipei City, Taiwan) with purity of more than 85%, and they were prepared in a 2-fold dilution with CAMHB before examining the antimicrobial activity by broth microdilution. MIC and MBC were measured from 3 independent replicates.

For test [2], the system named is S. aureus TISTR 517. Kind of test: Agar well diffusion assay. The format is cell-based, Staphylococcus aureus. The conditions noted are these: mean ± SD, n = 3. As to the method:
(§3) WUL10 colony was inoculated in 50 mL of half formula of Luria-Bertani (half LB) broth (Titan Biotech Ltd., Rajasthan, India), and incubated at 30 °C, 150 rpm overnight. The culture was adjusted the turbidity equivalent to 0.5 McFarland standard by 0.85% NaCl, and then, 2 mL of this preculture was transferred in 200 mL of half LB broth. The culture was shaken at 30 °C, 150 rpm for 7 days, and an aliquot of samples (2 mL) was collected at different time interval. One mL of sample was measured the cell growth by spectrophotometer at 625 nm (Thermo Fisher Scientific, Waltham, MA, USA). The remaining sample was centrifuged at 10,000× g, 4 °C for 30 min (Sigma-Aldrich Co., St. Louis, MO, USA), and the CFS was examined for the antimicrobial activity against all indicator strains by agar well diffusion assay. Three replicates of experiments were carried out, and the zone of inhibition was reported as mean ± SD.
(§4) The colonies of indicator strains were inoculated in 9 mL of sterile 0.85% NaCl, and the cell suspensions were adjusted the turbidity comparably to 0.5 McFarland standard. They were swabbed onto the MH agar, and the wells were punched onto the agar using a pipette tip. One hundred µL of CSF or purified substance of WUL10 was loaded into each well, and the plates were incubated at 37 °C for 24 h. […] The experiments were performed in three independent experiments, and the inhibition zone was measured and reported as mean ± SD [21].

Test [3] relates to MRSA isolate 2468. Nature of the test: Agar well diffusion assay. The class given is cell-based, Staphylococcus aureus. The conditions noted are these: mean ± SD, n = 3. As to the method:
as §3, §4
In general terms: In agar diffusion tests the substance spreads into inoculated agar from a disc or well.

Test [4] concerns MRSA isolate 142. Kind of test: Agar well diffusion assay. The class given is cell-based, Staphylococcus aureus. To be noted: Table 1 experiment, mean ± SD, n = 3. As to the method: as §3, §4
Test [5] deals with MRSA isolate 1096. Nature of the test: Agar well diffusion assay. The format is cell-based, Staphylococcus aureus. To be noted: Table 1 experiment, mean ± SD, n = 3. As to the method:
as §3, §4

In test [6] the test system is MRSA isolate 2468. Nature of the test: microbe, parasite or virus in culture. The class given is cell-based, Staphylococcus aureus. As to the method:
as §1, §2

Test [7] concerns MRSA isolate 142. Nature of the test: Broth microdilution MIC and MBC (CLSI). The format is cell-based. To be noted: Staphylococcus aureus. As to the method:
as §1

In test [8] the test system is MRSA isolate 1096. Nature of the test: Broth microdilution MIC and MBC (CLSI). The format is cell-based. To be noted: Staphylococcus aureus. As to the method: as §1
On the technique in general: Dilution methods test growth across graded concentrations, often in twofold steps.

Where [9] appears, read: antibiotic 30 µg, Table 1 experiment.
Setting [10] is: antibiotic 30 µg, Table 4 experiment.
[11] abbreviates: antibiotic 1 µg, Table 1 experiment.
Setting [12] is: broth microdilution, CAMHB, 37 °C 24 h, n = 3.

Values after ≈ are worked out from the molar mass of the structure shown. Read-outs that look alike come from different tables or passages of the source. No end group written: not given here.

Consider `CO[C@@]1(NC(=O)Cc2cccs2)C(=O)N2C(C(=O)O)=C(COC(N)=O)CS[C@@H]21` [Cefoxitin], for which, in the test on S. aureus TISTR 517 [1] (Staphylococcus aureus, TISTR517, broth microdilution, CAMHB, 37 °C 24 h, n = 3, read-out: MIC), the MIC is 2 µg/mL (≈ 4.68 µM). Moreover, the “Zone of Inhibition” value is reported as 32.68 ± 0.15 mm in the test with S. aureus TISTR 517 [2] (setting [9]); 32.77 ± 0.55 mm in the test on S. aureus TISTR 517 [2] (setting [10]); 0.00 ± 0.00 mm in the test with MRSA isolate 2468 [3] (setting [9]); 0.00 ± 0.00 mm in the test with MRSA isolate 142 [4] (antibiotic 30 µg); 0.00 ± 0.00 mm in the test on MRSA isolate 1096 [5] (antibiotic 30 µg).
Consider `Cc1onc(-c2ccccc2)c1C(=O)N[C@@H]1C(=O)N2[C@@H]1SC(C)(C)[C@@H]2C(=O)O` [Oxacillin], for which the “Zone of Inhibition” value in the test with S. aureus TISTR 517 [2] (setting [11]) is reported as 29.29 ± 0.39 mm; with MRSA isolate 2468 [3] (setting [11]), 0.00 ± 0.00 mm; in the test with MRSA isolate 142 [4] (antibiotic 1 µg), 0.00 ± 0.00 mm; in the test on MRSA isolate 1096 [5] (antibiotic 1 µg), 0.00 ± 0.00 mm.
Regarding `CN[C@H](CC(C)C)C(=O)N[C@H]1C(=O)N[C@@H](CC(N)=O)C(=O)N[C@H]2C(=O)N[C@H]3C(=O)N[C@H](C(=O)N[C@H](C(=O)O)c4cc(O)cc(O)c4-c4cc3ccc4O)[C@H](O)c3ccc(c(Cl)c3)Oc3cc2cc(c3O[C@@H]2O[C@H](CO)[C@@H](O)[C@H](O)[C@H]2O[C@H]2C[C@](C)(N)[C@H](O)[C@H](C)O2)Oc2ccc(cc2Cl)[C@H]1O` [Vancomycin], the MBC in the test on S. aureus TISTR 517 [1] (Staphylococcus aureus, TISTR517) amounted to 2 µg/mL (≈ 1.38 µM); against MRSA isolate 2468 [6] (Staphylococcus aureus), 2 µg/mL (≈ 1.38 µM); against MRSA isolate 142 [7], 2 µg/mL (≈ 1.38 µM); with MRSA isolate 1096 [8], 2 µg/mL (≈ 1.38 µM). Besides, the MIC against S. aureus TISTR 517 [1] (Staphylococcus aureus, TISTR517, 24 h) came to 2 µg/mL (≈ 1.38 µM); in the test on MRSA isolate 2468 [6] (Staphylococcus aureus, 24 h) it was 2 µg/mL (≈ 1.38 µM); in the test on MRSA isolate 142 [7] (24 h) it was 2 µg/mL (≈ 1.38 µM); with MRSA isolate 1096 [8] (24 h), 2 µg/mL (≈ 1.38 µM). For the same compound, in the test on MRSA isolate 2468 [3] (setting [10]), the “Zone of Inhibition” value is given as 26.75 ± 0.18 mm.
Take KVLVKYLGGLLKLAALMV [synthetic peptide]: the MIC in the test on S. aureus TISTR 517 [1] (setting [12]) and in the test on MRSA isolate 2468 [6] (setting [12]) was 16 µg/mL each time.
